From patent US9204653B2, “5-fluoro pyrimidine derivatives” (DOW AGROSCIENCES LLC, priority 2008, dated 2015)
Read-outs that look alike come from different tables or passages of the source.

System: Mycosphaerella graminicola; Anamorph: Septoria tritici; Bayer Code SEPTTR
Experiment: Leaf blotch of wheat, foliar fungicide treatment, one day protectant (1DP) or three day curative (3DC)
Type: in vivo, Septoria tritici on wheat plants (variety Yuma)
Settings: Zymoseptoria tritici; for pest or weed control at 200 ppm / pest or weed control at 50 ppm: % disease control rating
[1] = 24 h, one day protectant (1DP), 25 ppm (first 1DP column), percent control rating, read-out: SETTTR 1DP 25 ppm
[2] = 24 h, one day protectant (1DP), 25 ppm as printed (second 1DP column), percent control rating, read-out: SETTTR 1DP 25 ppm
[3] = 72 h, three day curative (3DC), 25 ppm, percent control rating, read-out: SEPTTR 3DC 25 ppm
[4] = 72 h, three day curative (3DC), percent control rating, read-out: SEPTTR 3DC 100 ppm
[5] = 24 h, one day protectant (1DP), 25 ppm, rating of percent disease control, read-out: SETTTR 1DP 25 ppm
[6] = 24 h, one day protectant (1DP), rating of percent disease control, read-out: SEPTTR 1DP 100 ppm
[7] = 72 h, three day curative (3DC), 25 ppm, rating of percent disease control, read-out: SEPTTR 3DC 25 ppm
[8] = 72 h, three day curative (3DC), rating of percent disease control, read-out: SEPTTR 3DC 100 ppm
[9] = 24 h, one day protectant, 25 ppm, rating of percent disease control, read-out: SETTTR 1DP 25 ppm
[10] = 24 h, one day protectant, rating of percent disease control, read-out: SEPTTR 1DP 100 ppm
[11] = 72 h, three day curative, 25 ppm, rating of percent disease control, read-out: SEPTTR 3DC 25 ppm
[12] = 72 h, three day curative, rating of percent disease control, read-out: SEPTTR 3DC 100 ppm
[13] = 24 h, one day protectant (1DP), 25 ppm, percent disease control rating, read-out: SETTTR 1DP 25 ppm
[14] = 24 h, one day protectant (1DP), percent disease control rating, read-out: SEPTTR 1DP 100 ppm
[15] = 72 h, three day curative (3DC), 25 ppm, percent disease control rating, read-out: SEPTTR 3DC 25 ppm
[16] = 72 h, three day curative (3DC), percent disease control rating, read-out: SEPTTR 3DC 100 ppm

Compound: CC(=O)OCOc1ncc(F)c(NC=O)n1 [Compound 1125]
- pest or weed control at 25 ppm [1]: 76 to 100%
- pest or weed control at 25 ppm [2]: 76 to 100%
- pest or weed control at 25 ppm [3]: 76 to 100%
- pest or weed control at 100 ppm [4]: 76 to 100%

Compound: COc1ncc(F)c(N(O)Cc2ccc(Cl)nc2)n1 [Compound 1054]
- pest or weed control at 25 ppm [1]: 0 to 25%
- pest or weed control at 25 ppm [2]: 0 to 25%
- pest or weed control at 25 ppm [3]: 0 to 25%
- pest or weed control at 100 ppm [4]: 0 to 25%

Compound: Cc1c(F)c(F)c(COc2ncc(F)c(N)n2)c(F)c1F [Compound 500]
- pest or weed control at 25 ppm [5]: 76 to 100%
- pest or weed control at 100 ppm [6]: 76 to 100%
- pest or weed control at 25 ppm [7]: 76 to 100%
- pest or weed control at 100 ppm [8]: 76 to 100%

Compound: COc1ccc(COc2ncc(F)c(/N=C/N(C)C)n2)cc1 [Compound 726]
- pest or weed control at 25 ppm [9]: 76 to 100%
- pest or weed control at 100 ppm [10]: 76 to 100%
- pest or weed control at 25 ppm [11]: 76 to 100%
- pest or weed control at 100 ppm [12]: 76 to 100%

Compound: CN(Cc1ccccc1)c1nc(O)ncc1F [Compound 957, 4-(Benzylmethylamino)-5-fluoropyrimidin-2-ol]
- pest or weed control at 25 ppm [1]: 0 to 25%
- pest or weed control at 25 ppm [2]: 0 to 25%
- pest or weed control at 25 ppm [3]: 26 to 50%
- pest or weed control at 100 ppm [4]: 26 to 50%

Compound: Fc1cnc(OCc2ccccc2)nc1-n1ccnc1 [Compound 115]
- pest or weed control at 25 ppm [13]: 76 to 100%
- pest or weed control at 100 ppm [14]: 76 to 100%
- pest or weed control at 25 ppm [15]: 76 to 100%
- pest or weed control at 100 ppm [16]: 76 to 100%

Compound: Fc1cnc(OCc2cccs2)nc1NCOCc1ccccc1 [Compound 506]
- pest or weed control at 25 ppm [5]: 26 to 50%
- pest or weed control at 100 ppm [6]: 76 to 100%
- pest or weed control at 25 ppm [7]: 0 to 25%
- pest or weed control at 100 ppm [8]: 0 to 25%

Compound: Nc1nc(OCc2cc3cccnc3s2)ncc1F [Compound 578]
- pest or weed control at 25 ppm [9]: 76 to 100%
- pest or weed control at 100 ppm [10]: 76 to 100%
- pest or weed control at 25 ppm [11]: 76 to 100%
- pest or weed control at 100 ppm [12]: 76 to 100%

Compound: COc1ncc(F)c(NNc2c(Cl)cccc2Cl)n1 [Compound 1055]
- pest or weed control at 25 ppm [1]: 0 to 25%
- pest or weed control at 25 ppm [2]: 0 to 25%
- pest or weed control at 25 ppm [3]: 0 to 25%
- pest or weed control at 100 ppm [4]: 0 to 25%

Compound: Fc1ccc(COc2ncc(F)c(NNc3ccccc3Cl)n2)cc1 [Compound 515]
- pest or weed control at 25 ppm [5]: 0 to 25%
- pest or weed control at 100 ppm [6]: 76 to 100%
- pest or weed control at 25 ppm [7]: 0 to 25%
- pest or weed control at 100 ppm [8]: 0 to 25%

Compound: Fc1cnc(OCc2cccc(C(F)(F)F)c2)nc1NC1CC1 [Compound 826]
- pest or weed control at 200 ppm (24 h, one day protectant): 76 to 100%

Compound: Nc1nc(OCc2c(F)cc(F)cc2F)ncc1F [Compound 194]
- pest or weed control at 25 ppm [5]: 76 to 100%
- pest or weed control at 100 ppm [6]: 76 to 100%
- pest or weed control at 25 ppm [7]: 76 to 100%
- pest or weed control at 100 ppm [8]: 76 to 100%

Compound: C=CCOc1ncc(F)c(N)n1 [Compound 932]
- pest or weed control at 50 ppm (24 h, one day protectant): 76 to 100%
- pest or weed control at 200 ppm (24 h, one day protectant): 76 to 100%

Compound: Fc1cnc(OCc2ccco2)nc1NCc1ccc2c(c1)OCO2 [Compound 859]
- pest or weed control at 50 ppm (24 h, one day protectant): 76 to 100%
- pest or weed control at 200 ppm (24 h, one day protectant): 76 to 100%

Compound: Nc1nc(OCc2cccc(OC(F)F)c2)ncc1F [Compound 368]
- pest or weed control at 25 ppm [5]: 76 to 100%
- pest or weed control at 100 ppm [6]: 76 to 100%
- pest or weed control at 25 ppm [7]: 76 to 100%
- pest or weed control at 100 ppm [8]: 76 to 100%

Compound: COCCOC(=O)Nc1nc(OCc2ccccc2)ncc1F [Compound 174]
- pest or weed control at 25 ppm [13]: 76 to 100%
- pest or weed control at 100 ppm [14]: 76 to 100%
- pest or weed control at 25 ppm [15]: 76 to 100%
- pest or weed control at 100 ppm [16]: 76 to 100%

Compound: Nc1nc(ON=C(C2CC2)C2CC2)ncc1F [Compound 998]
- pest or weed control at 25 ppm [1]: 76 to 100%
- pest or weed control at 25 ppm [2]: 76 to 100%
- pest or weed control at 25 ppm [3]: 76 to 100%
- pest or weed control at 100 ppm [4]: 76 to 100%

Compound: CNc1nc(OCc2cc(OC)c(OC)c(OC)c2)ncc1F [Compound 480]
- pest or weed control at 25 ppm [5]: 0 to 25%
- pest or weed control at 100 ppm [6]: 0 to 25%
- pest or weed control at 25 ppm [7]: 0 to 25%
- pest or weed control at 100 ppm [8]: 0 to 25%

Compound: COc1cccc(COc2ncc(F)c(N(C)N)n2)c1 [Compound 608]
- pest or weed control at 25 ppm [9]: 51 to 75%
- pest or weed control at 100 ppm [10]: 76 to 100%
- pest or weed control at 25 ppm [11]: 51 to 75%
- pest or weed control at 100 ppm [12]: 76 to 100%

Compound: Fc1cnc(OCCc2ccccc2)nc1NCc1cccs1 [Compound 843]
- pest or weed control at 50 ppm (24 h, one day protectant): 26 to 50%
- pest or weed control at 200 ppm (24 h, one day protectant): 76 to 100%

Compound: COc1ccccc1COc1ncc(F)c(NSc2ccccc2[N+](=O)[O-])n1 [Compound 230]
- pest or weed control at 25 ppm [5]: 76 to 100%
- pest or weed control at 100 ppm [6]: 76 to 100%
- pest or weed control at 25 ppm [7]: 0 to 25%
- pest or weed control at 100 ppm [8]: 0 to 25%
